Reference: patent US20230080670A1, “METHODS AND COMPOSITIONS FOR TREATING TUMORS USING TRANSCRIPTION INHIBITION AND DNA DAMAGE” (ARIZONA BOARD OF REGENTS ON BEHALF OF THE UNIVERSITY OF …, priority 2019, published 2023)
“Also recorded” adds a separate entry of the source.

Tests used:
gammaH2Ax [1] = test: Western blot of gammaH2Ax DNA damage response, A673 cells; type: cell-based
gammaH2Ax [2] = test: Western blot of gammaH2Ax DNA damage response, HEK293 cells; type: cell-based; settings: flavopiridol added to SN38, 24 hours
Method: All doses shown are in nanomolar, nM.
Western blot analysis: Protein lysates concentrations were quantified using BCA Protein Assay (Pierce). 5-10 ug of protein sample was loaded onto 7.5% SDS-PAGE gels. Standard western blot protocols were followed. Blots were transferred at 500 mA, blocked in 5% nonfat dried milk in TBS-T, and incubated overnight with primary antibody at 4° C. Blots were washed in TBS-T, incubated in secondary antibody for 1 hour at room temperature, washed again in TBS-T, and imaged after the addition of SuperSignal™ West Pico PLUS Chemiluminescent substrate (Thermo Scientific). Western blots were imaged on the ChemiDoc.

A673 cells = test: MTT cell survival assay, A673 Ewing's sarcoma cell line; type: cell-based; settings: 96 hours
Method: It was tested whether the functional interaction of EWS or FUS with the fusion protein driving Ewing's sarcoma would make these cells exceptionally sensitive to transcription inhibitors.
The DNA damage agent SN38 and the transcription inhibitor flavopiridol were titrated, and cell survival was measured after 96 hours using an MTT assay (see FIG. 3A).

patients = settings: therapeutic doses; cited from earlier work

Row | Compound | inhibition of the gamma H2Ax response to DNA damage (quantification of western blots) (gammaH2Ax [1]; A673 cells, 10 nM, 50 nM and 100 nM flavopiridol) | effect on phosphorylation of histone to gammaH2Ax (DNA damage response) (gammaH2Ax [1]; transcription inhibitor added to SN38, 24 hours, Ewing's sarcoma cell line) | effect on gammaH2Ax response to DNA damage (gammaH2Ax [2]) | toxicity (cell survival, MTT assay) (A673 cells; 100 nM flavopiridol alone) | toxicity in patients (patients) | gammaH2Ax DNA damage response (gammaH2Ax [1]; SN38 for 24 hours without transcription inhibitor, Ewing's sarcoma cell line) | toxicity (cell survival, MTT assay) (A673 cells; 1.3 nM SN38 alone)
1 | CN1CC[C@H](c2c(O)cc(O)c3c(=O)cc(-c4ccccc4Cl)oc23)[C@H](O)C1 [flavopiridol] | dose-dependent inhibition | prevented this event | does not prevent the normal cellular response to DNA damage; also recorded: had no such effect | No toxicity | significant toxicity |  | 
2 | CCc1c2c(nc3ccc(O)cc13)-c1cc3c(c(=O)n1C2)COC(=O)[C@]3(O)CC [SN38] |  |  |  |  |  | standard DNA damage response | No toxicity
